Laboratory results published in PMC9856093, “CIGB-300 Anticancer Peptide Differentially Interacts with CK2 Subunits and Regulates Specific Signaling Mediators in a Highly Sensitive Large Cell Lung Carcinoma Cell Model” (Biomedicines, 2022).
Positions of bridges follow the written chain, without caps; N, C: chain ends. Non-standard residues stand in square brackets, D forms with d. Residues, ends and D or L forms follow the SMILES beside them. βAla = NCCC(=O)O

How the values were obtained:
[1] = system: mRNA levels of CK2 subunits; assay: Quantitative real-time PCR of CK2 subunit transcripts; assay type: cell-based, human; details: normalised to GAPDH and HMBS
Protocol: Three replicates per condition were used. […] Louis, MO, USA) for RNA isolation (AllPrep DNA/RNA/miRNA Universal Kit, Qiagen, Valencia, CA, USA), according to the manufacturer protocol. All RNA samples were checked by Nanodrop spectrophotometer to measure concentration (ng/μL) and OD relation (260/280 nm). […] Complementary (c)DNAs were obtained from 500 ng of total RNAs, using the Transcriptor First Strand cDNA Synthesis Kit package (Roche, Mannheim, Germany), following manufacturer instructions. […] We amplified two genes for normalization of GAPDH (glyceraldehyde-3-phosphate dehydrogenase) and HMBS (hydroxymethyl-bilane synthase), and the transcripts encoding for CK2 subunits. All the oligonucleotides were synthetized in the Synthesis Department at CIGB (Table S1). Runs were carried out in the LightCycler® 480II equipment (Roche, Mannheim, Germany) in a 96-well format and SYBR Green Probe II mode with a standard program with 45 cycles. Fold changes for transcripts in each treatment were calculated with respect to time-matched control groups after normalization with GAPDH and HMBS genes (v2.0.13, Qiagen GbmH, Munich, Germany), using Ct values and reaction efficiencies per amplicon calculated in […]11.3). Statistical differences are reported in this program, with a p-value-associated with a significance for p < 0.05.

[2] = molecular target: T1, CK2α (Homo sapiens, UniProt P68400); assay: In vivo pull-down plus Western blot; assay type: binding; details: biotin-tagged peptide 30 µM, 0.5 h, NCI-H460 cells
T1 construct: endogenous in cells; host or cells: NCI-H460
T1 sequence (P68400 whole entry): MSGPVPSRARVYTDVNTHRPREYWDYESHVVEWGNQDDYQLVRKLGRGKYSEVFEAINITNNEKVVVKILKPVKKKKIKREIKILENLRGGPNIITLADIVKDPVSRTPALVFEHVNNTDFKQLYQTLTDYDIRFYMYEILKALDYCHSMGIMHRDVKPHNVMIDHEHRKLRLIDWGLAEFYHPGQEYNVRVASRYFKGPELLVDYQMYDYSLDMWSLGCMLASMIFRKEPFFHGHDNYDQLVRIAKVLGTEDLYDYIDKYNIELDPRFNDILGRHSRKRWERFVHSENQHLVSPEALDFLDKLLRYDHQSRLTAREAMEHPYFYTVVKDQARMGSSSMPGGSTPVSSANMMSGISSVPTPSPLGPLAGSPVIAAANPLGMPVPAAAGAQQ
Protocol: (§1) For in vivo pull-down assays, N-terminal biotin tagged CIGB-300 (CIGB-300-B) was added to NCI-H460 cells at a final concentration of 30 µM and incubated for 30 min at 37 °C and 5% CO2. Subsequently, cells were collected, washed, and lysed in PBS solution (Sigma, St. Louis, MO, USA) containing 1 mM DTT (Sigma, St. Louis, MO, USA), Triton X-100 (1%), and complete protease inhibitor (Roche, Basel, Switzerland). Cellular lysates were cleared by centrifugation and added to 30 μL of pre-equilibrated streptavidin–sepharose matrix (GE Healthcare, Chicago, IL, USA). In the case of RNA pre-treatment, another cell extract was incubated with RNAase A (10 mg/mL) (Promega, Madison, WI, USA) for 20 min at 37 °C. Following 1 h at 4 °C, the matrix was collected by centrifugation and extensively washed with cold PBS 1 mM and DTT. Proteins bound to streptavidin–sepharose matrix were digested with trypsin (Promega, Madison, WI, USA) during 16 h or eluted for Western blot analysis. In parallel, untreated cells were subjected to the same experimental procedure to identify those proteins non-specifically bound to streptavidin–sepharose matrix. Proteins were resolved in 12% SDS-PAGE and then transferred to a nitrocellulose membrane. For Western blot analysis, a mouse monoclonal antibody against CK2α (Abcam, Cambridge, UK), a rabbit polyclonal antibody against CK2α′ (Abcam, Cambridge, UK), a mouse monoclonal antibody against CK2β (Sigma, St. Louis, MO, USA), and monoclonal rabbit antibodies against PTEN and RPS6 (Cell Signaling, Danvers, MA, USA), respectively, were used as primary antibodies. Detection was performed with peroxidase-conjugated anti-mouse IgG 1:5000 (Sigma, St. Louis, MO, USA) and anti-rabbit IgG 1:5000 (Sigma, St. Louis, MO, USA). In parallel, untreated cells were subjected to the same experimental procedure to identify those proteins non-specifically bound to streptavidin–sepharose matrix. […]

[3] = molecular target: T2, CK2α′ (Homo sapiens, UniProt P19784); assay: In vivo pull-down plus Western blot; assay type: binding; details: biotin-tagged peptide 30 µM, 0.5 h, NCI-H460 cells
T2 construct: endogenous in cells; host or cells: NCI-H460
T2 sequence (P19784 whole entry): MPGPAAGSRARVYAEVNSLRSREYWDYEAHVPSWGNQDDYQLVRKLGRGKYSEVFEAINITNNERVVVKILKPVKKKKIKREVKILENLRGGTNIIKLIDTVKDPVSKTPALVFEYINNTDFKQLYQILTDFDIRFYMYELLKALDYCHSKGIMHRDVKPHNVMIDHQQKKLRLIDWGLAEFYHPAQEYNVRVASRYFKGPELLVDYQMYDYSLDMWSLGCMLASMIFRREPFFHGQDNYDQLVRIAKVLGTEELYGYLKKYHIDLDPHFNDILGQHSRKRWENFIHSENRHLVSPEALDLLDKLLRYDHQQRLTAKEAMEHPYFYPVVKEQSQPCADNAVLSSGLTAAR
Protocol: as §1

[4] = molecular target: T3, PTEN (Homo sapiens, UniProt P60484); assay: In vivo pull-down plus Western blot; assay type: binding; details: biotin-tagged peptide 30 µM, 0.5 h, NCI-H460 cells
T3 construct: endogenous in cells; host or cells: NCI-H460
T3 sequence (P60484 whole entry): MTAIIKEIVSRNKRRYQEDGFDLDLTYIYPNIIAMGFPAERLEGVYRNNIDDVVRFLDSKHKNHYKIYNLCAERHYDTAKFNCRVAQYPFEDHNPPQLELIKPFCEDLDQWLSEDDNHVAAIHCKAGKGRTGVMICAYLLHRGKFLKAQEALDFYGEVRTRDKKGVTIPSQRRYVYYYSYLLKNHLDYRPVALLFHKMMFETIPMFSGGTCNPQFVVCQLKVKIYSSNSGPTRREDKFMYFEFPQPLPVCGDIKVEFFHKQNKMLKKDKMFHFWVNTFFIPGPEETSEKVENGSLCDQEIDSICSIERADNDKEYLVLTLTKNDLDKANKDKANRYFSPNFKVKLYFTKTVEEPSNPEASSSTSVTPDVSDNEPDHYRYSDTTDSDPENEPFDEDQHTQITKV
Protocol: as §1

[5] = system: c-Myc; assay: Western blot, cancer molecular markers; assay type: cell-based, human
Protocol: (§2) NCI-H460 cells were plated on six-well cell culture plates at 1 × 10^6 cells per well and incubated overnight at 37 °C and 5% CO2. […] After incubation, the culture medium was withdrawn, and cells were washed with PBS and lysed in RIPA buffer containing protease/phosphatase inhibitor (Thermo Fisher Scientific, Waltham, MA, USA). Western blot detection was carried out as described (4.6). Primary antibodies against phospho-PTEN (S380) and total PTEN (Cell Signaling Technology, Danvers, MA, USA), phospho-RPS6 (S235/236) and total RPS6 (Cell Signaling Technology, Danvers, MA, USA), Ezrin (Abcam, Cambridge, UK), c-Myc (CIGB, SP, Cuba), and Fibrillarin (Abcam, Cambridge, UK) were used. Primary antibodies against CK2 subunits were used as previously described. All experiments were performed at least two times.

[6] = system: NCI-H460 cells; assay: Cell cycle analysis, PI staining, flow cytometry; assay type: cell-based, human
Protocol: For cell cycle analysis, NCI-H460 cells were incubated with 30 µM CIGB-300 or with 5 µM CX-4945, respectively, during 6 h, 24 h and 48 h. Following treatment with the peptide, cells were collected by centrifugation, washed with PBS, and fixed at 4 °C for 2 h with ice-cold 70% ethanol. After fixation, cells were treated with DNase-free RNase A (Sigma, St. Louis, MO, USA) and subsequently stained at 37 °C for 20 min with […] PI solution (Sigma, St. Louis, MO, USA). Stained cells were analyzed in the above-mentioned Partec CyFlow Space flow cytometry, and FlowJo Software (v7.6.1) was used for data processing and visualization. All experiments were performed at least four times.

[7] = system: NCI-H460 cells; assay: Annexin V-FITC/PI staining, apoptosis by flow cytometry; assay type: cell-based, human
Protocol: Apoptosis of NCI-H460 cells was measured using FITC Annexin V Apoptosis Detection Kit (BD Biosciences, San Jose, CA, USA). […] NCI-H460 cells were incubated also with 5 µM CX-4945 for 6 h, 24 h and 48 h. Subsequently, cells were washed twice with cold PBS and resuspended in binding buffer (1X) at a final concentration of 1 × 10^6 cells/mL. Finally, 5 µL of FITC Annexin V and PI were added, and cell suspensions were incubated for 15 min at room temperature in the dark. Flow cytometric analysis of stained cells was performed as previously described. All experiments were performed at least two times.

[8] = system: NCI-H125; details: NCI-H125 NSCLC cell line; cited from earlier work
[9] = system: other solid tumor cells; design: method as in PMID 35155265; details: read-out: IC50 mean value, antiproliferative effect; cited from earlier work
[10] = system: p-RPS6 (S235/236); assay: Western blot, CK2 downstream signaling; assay type: cell-based, human; details: NCI-H460, 30 µM, 48 h
Protocol: as §2

[11] = system: A549; details: A549 NSCLC cell line; cited from earlier work
Description: In this work, we evaluated for the first time the molecular events supporting CK2 inhibition by CIGB-300 in an LCLC in vitro model such as NCI-H460 cells.

[12] = system: RPS6; assay: In vivo pull-down plus Western blot; assay type: binding, human; details: biotin-tagged peptide 30 µM, 0.5 h, NCI-H460 cells; RNAase free assay
Protocol: as §1, with “membrane.” for “membrane. For Western blot analysis, a mouse monoclonal antibody against CK2α (Abcam, Cambridge, UK), a rabbit polyclonal antibody against CK2α′ (Abcam, Cambridge, UK), a mouse monoclonal antibody against CK2β (Sigma, St. Louis, MO, USA), and monoclonal rabbit antibodies against PTEN and RPS6 (Cell Signaling, Danvers, MA, USA), respectively, were used as primary antibodies. Detection was performed with peroxidase-conjugated anti-mouse IgG 1:5000 (Sigma, St. Louis, MO, USA) and anti-rabbit IgG 1:5000 (Sigma, St. Louis, MO, USA). In parallel, untreated cells were subjected to the same experimental procedure to identify those proteins non-specifically bound to streptavidin–sepharose matrix.”

[13] = system: CK2β; assay: In vivo pull-down plus Western blot; assay type: binding, human; details: biotin-tagged peptide 30 µM, 0.5 h, NCI-H460 cells
Protocol: as §1, with “membrane.” for “membrane. For Western blot analysis, a mouse monoclonal antibody against CK2α (Abcam, Cambridge, UK), a rabbit polyclonal antibody against CK2α′ (Abcam, Cambridge, UK), a mouse monoclonal antibody against CK2β (Sigma, St. Louis, MO, USA), and monoclonal rabbit antibodies against PTEN and RPS6 (Cell Signaling, Danvers, MA, USA), respectively, were used as primary antibodies. Detection was performed with peroxidase-conjugated anti-mouse IgG 1:5000 (Sigma, St. Louis, MO, USA) and anti-rabbit IgG 1:5000 (Sigma, St. Louis, MO, USA). In parallel, untreated cells were subjected to the same experimental procedure to identify those proteins non-specifically bound to streptavidin–sepharose matrix.”

[14] = system: NCI-H460 cells; assay: Antiproliferative assay, crystal violet staining; assay type: cell-based; details: Homo sapiens, 48 h incubation, CalcuSyn, mean, n = 4, read-out: IC50, antiproliferative effect
Protocol: NCI-H460 was originally obtained from the American Type Culture Collection (ATCC, Manassas, VA, USA). The cell line was cultured in Dulbecco’s modified Eagle’s medium (DMEM) (Gibco, Waltham, MA, USA) supplemented with 10% (v/v) fetal bovine serum (FBS, Invitrogen, Carlsbad, CA, USA) and 50 µg/mL gentamicin (Sigma, St. Louis, MO, USA). Cells were maintained at 37 °C and 5% CO2.
Antiproliferative effect was determined using crystal violet staining. Cells were seeded in flat-bottom 96-well plates (6000 cells/mL), and 24 h later, serial dilutions 1:2 ranging from 200 to 12.5 µM of CIGB-300 and serial dilutions 1:2 ranging from 50 to 3.12 µM of CX-4945 were added, respectively. After 48 h of incubation, the medium was removed from each well and crystal violet (1%) (Sigma, St. Louis, MO, USA) was added and incubated for 5 min at room temperature. After dye removal, wells were washed with water. Absorbance was measured in a CLARIOstar microplate reader (BMG LABTECH, Ortenberg, Germany), and half-inhibitory concentration (IC50) values were estimated using CalcuSyn software (v2.1) (Biosoft, Cambridge, UK).

[15] = NCI-H460, 5 µM, 6 h, 24 h and 48 h

| SMILES | up-regulation of mRNA levels of CK2 subunits ([1]; NCI-H460, 30 µM, earlier times (0.5 h, 3 h, 6 h)) | interaction with CK2α in pull-down fraction [2] | interaction with CK2α′ in pull-down fraction [3] | interaction with PTEN in pull-down fraction [4] | effect on c-Myc protein expression ([5]; NCI-H460, 30 µM, 0.5 h to 48 h) | perturbation of cells accumulated in the G0/G1 and S phases of the cell cycle ([6]; NCI-H460, 30 µM, S phase at 6 h, G0/G1 at 24 h and 48 h) | apoptotic peak ([7]; NCI-H460, 30 µM, at 6 h) | IC50 [8] | IC50 [9] | effect on p-RPS6 (S235/236) [10] | IC50 [11] | interaction with RPS6 in pull-down fraction [12] | regulatory subunit (β) of CK2 in pull-down fraction [13] | up-regulation of mRNA levels of CK2 subunits ([1]; NCI-H460, 5 µM, longer incubation times (3 h to 24 h)) | effect on c-Myc protein expression ([5]; NCI-H460, 5 µM, 6 h to 48 h) | cell cycle modulation versus untreated cells [6, 15] | changes in the double-positive region of the panel [7, 15] | IC50 [14] |
| --- | --- | --- | --- | --- | --- | --- | --- | --- | --- | --- | --- | --- | --- | --- | --- | --- | --- | --- |
| CSCC[C@@H]1NC(=O)[C@H](Cc2c[nH]c3ccccc23)NC(=O)[C@@H](NC(=O)CCNC(=O)[C@H](CCC(N)=O)NC(=O)[C@@H]2CCCN2C(=O)[C@@H]2CCCN2C(=O)[C@H](CCCNC(=N)N)NC(=O)[C@H](CCCNC(=N)N)NC(=O)[C@H](CCCNC(=N)N)NC(=O)[C@H](CCC(N)=O)NC(=O)[C@H](CCCNC(=N)N)NC(=O)[C@H](CCCNC(=N)N)NC(=O)[C@H](CCCCN)NC(=O)[C@H](CCCCN)NC(=O)[C@H](CCCNC(=N)N)NC(=O)CN)CSSC[C@@H](C(=O)O)NC(=O)[C@H]([C@@H](C)O)NC(=O)CNC(=O)[C@H](CC(C)C)NC(=O)[C@H](Cc2c[nH]cn2)NC(=O)[C@H](CCCNC(=N)N)NC(=O)[C@@H]2CCCN2C(=O)[C@H](CO)NC1=O [CIGB-300] (H-GRKKRRQRRRPPQ[βAla]CWMSPRHLGTC-OH; disulfide 15-25; N-terminus and C-terminus assumed) | no more than 1.5 fold | mainly interacted | mainly interacted | did not interact | decreased c-Myc protein expression throughout all incubation times | 10–15% | ~50% | 60 µM | 60 to 300 µM | potent inhibition | 171 µM | evident interaction | only minor levels | – | – | – | – | – |
| O=C(O)c1ccc2c(c1)nc(Nc1cccc(Cl)c1)c1ccncc12 [CX-4945, reference compound] | – | – | – | – | – | – | – | – | – | – | – | – | – | no more than 1.5 fold | induced c-Myc up-regulation | modified the amount of the cell population in all phases of the cell cycle | did not induce any remarkable changes | 5 ± 2.1 µM |
